# Tested on: Bemisia tabaci
# Test: Bemisia tabaci leaf dip test (brinjal leaves, whitefly adults)
# Format: in vivo
# Details: foliar, dead and moribund whitefly adults 72 h after release, compared to untreated controls, read-out: percent mortality
# Protocol: The leaf dip method was used for testing, wherein the required quantity of the compound was weighed and dissolved in a tube containing a solvent solution. The tube was put on a vortex at 2000 rpm for proper mixing and then diluted with a 0.01% Triton-X solution to the desired test concentration. Brinjal leaves were dipped in the compound solution for 10 seconds; shade dried for 20 min and then placed, with the abaxial side of the leaf up, on 4 ml of a solidified 1% agar-agar solution in respective container caps. Known numbers of freshly emerged whitefly adults were collected, using a modified aspirator, and released into a perforated container in which the cap containing the treated leaf was placed. The containers were kept in a plant growth chamber at a temperature of 25° C. and relative humidity of 70%. Observations on dead, moribund and alive adults were recorded 72 h after the release. Percent mortality was calculated by combining dead and moribund adults and comparing the result to the one of the untreated controls. The compounds 1 9 11 18 25 28 29 30 31
row,Compound,mortality at 300 ppm [%]
1,CCCS(=O)(CCC)=Nc1cccc2nn(-c3cncc(F)c3)cc12 [Compound 77],≥ 70
2,CC(C)CS(=O)(CC(C)C)=Nc1ccc2nn(-c3cncnc3)cc2n1 [Compound 221],≥ 70
3,"N=S(=O)(c1ccc2nn(-c3cccnc3)cc2c1)C1CCC1 (stereo not shown) [Compound 554, cyclobutyl(imino)(2-(pyridin-3-yl)-2H-indazol-5-yl)-λ^6-sulfanone]",≥ 70
4,CCS(C)(=O)=Nc1ccc2nn(-c3cncc(F)c3)cc2n1 (stereo not shown) [Compound 307],≥ 70
5,CC(=O)N=S(=O)(c1ccc2nn(-c3cncnc3)cc2c1)C(C)C (stereo not shown) [Compound 418],≥ 70
6,CC(C)S(=O)(CC1CCC1)=Nc1ccc2nn(-c3cccnc3)cc2n1 (stereo not shown) [Compound 289],≥ 70
7,"CCS(=O)(CC)=NC(=O)c1ccc2nn(-c3cncnc3)cc2c1 [Compound 231, N-(diethyl(oxo)-λ^6-sulfaneylidene)-2-(pyrimidin-5-yl)-2H-indazole-5-carboxamide]",≥ 70
8,CCCS(C)(=O)=Nc1ccc2nn(-c3cncc(F)c3)cc2n1 (stereo not shown) [Compound 309],≥ 70
9,"COc1nn(-c2ccc3nn(-c4ccc(C)nc4C)cc3c2)c(=O)n1C [Compound 116, 2-(2-(2,6-dimethylpyridin-3-yl)-2H-indazol-5-yl)-5-methoxy-4-methyl-2,4-dihydro-3H-1,2,4-triazol-3-one]",≥ 70
10,"CCN(C)S(=O)(=Nc1ccc2nn(-c3cncnc3)cc2c1)C1CC1 (stereo not shown) [Compound 135, N-ethyl-N-methyl-N′-(2-(pyrimidin-5-yl)-2H-indazol-5-yl)cyclopropanesulfonimidamide]",≥ 70
11,CCS(=O)(CC)=Nc1ccc2nn(-c3cncnc3)cc2n1 [Compound 219],≥ 70
12,"CC(C)S(=N)(=O)c1ccc2nn(-c3cncnc3)cc2c1 (stereo not shown) [Compound 410, imino(isopropyl)(2-(pyrimidin-5-yl)-2H-indazol-5-yl)-λ^6-sulfanone]",≥ 70
13,CCCCS(=O)(CC)=Nc1ccc2nn(-c3cccnc3)cc2n1 (stereo not shown) [Compound 214],≥ 70
14,CC(C)CCS(=O)(=Nc1ccc2nn(-c3cncnc3)cc2c1)C(C)C (stereo not shown) [Compound 294],≥ 70
15,"CC(C)S(=O)(CCC(F)(F)F)=Nc1ccc2nn(-c3cncnc3)cc2c1 (stereo not shown) [Compound 101, isopropyl((2-(pyrimidin-5-yl)-2H-indazol-5-yl)imino)(3,3,3-trifluoropropyl)-λ^6-sulfanone]",≥ 70
16,CC(C)S(=O)(=NC(=O)C(F)F)c1ccc2nn(-c3cncnc3)cc2c1 (stereo not shown) [Compound 421],≥ 70
17,CCN=S(=O)(CC1CCC1)c1ccc2nn(-c3cncnc3)cc2c1 (stereo not shown) [Compound 466],≥ 70
18,CCCS(=O)(CCC)=Nc1ccc2nn(-c3cncc(F)c3)cc2n1 [Compound 310],≥ 70
19,CC(C)S(C)(=O)=Nc1ccc2nn(-c3cncnc3)cc2n1 (stereo not shown) [Compound 213],≥ 70
20,CC(C)(C)S(C)(=O)=Nc1ccc2nn(-c3cncc(F)c3)cc2n1 (stereo not shown) [Compound 313],≥ 70
21,CCS(=O)(=Nc1ccc2nn(-c3cncnc3)cc2n1)C(C)C (stereo not shown) [Compound 241],≥ 70
22,CC(=O)N=S(=O)(CC1CCC1)c1ccc2nn(-c3cncnc3)cc2c1 (stereo not shown) [Compound 467],≥ 70
23,"N=S(=O)(CC1CCC1)c1ccc2nn(-c3cncnc3)cc2c1 (stereo not shown) [Compound 465, (cyclobutylmethyl)(imino)(2-(pyrimidin-5-yl)-2H-indazol-5-yl)-λ^6-sulfanone]",≥ 70
24,CCCS(=O)(CCC)=Nc1cnc2nn(-c3cncnc3)cc2c1 [Compound 184],≥ 70
25,CCS(=O)(CC)=Nc1cc(C(F)(F)F)c2nn(-c3cccnc3)cc2c1 [Compound 296],≥ 70
26,CCS(=O)(=Nc1ccc(F)c2nn(-c3cccnc3)cc12)C(C)C (stereo not shown) [Compound 108],≥ 70

row,Compound,mortality at 300 ppm [%]
1,"CS(C)(=O)=NC(=O)c1ccc2nn(-c3cncnc3)cc2c1 [Compound 228, N-(dimethyl(oxo)-λ^6-sulfaneylidene)-2-(pyrimidin-5-yl)-2H-indazole-5-carboxamide]",≥ 70
2,CC(C)(C)S(C)(=O)=Nc1ccc2nn(-c3cncc(F)c3)cc2c1 (stereo not shown) [Compound 293],≥ 70
3,"N=S(=O)(CCC(F)(F)F)c1ccc2nn(-c3cccnc3)cc2c1 (stereo not shown) [Compound 580, imino(2-(pyridin-3-yl)-2H-indazol-5-yl)(3,3,3-trifluoropropyl)-λ^6-sulfanone]",≥ 70
4,"N=S(=O)(CCC1CCCCC1)c1ccc2nn(-c3cccnc3)cc2c1 (stereo not shown) [Compound 561, (2-cyclohexylethyl)(imino)(2-(pyridin-3-yl)-2H-indazol-5-yl)-λ^6-sulfanone]",≥ 70
5,CC(C)CS(=O)(CC(C)C)=Nc1ccc2nn(-c3cccnc3)cc2c1 [Compound 79],≥ 70
6,CCS(=O)(=Nc1ccc2nn(-c3ccnnc3)cc2c1)C(C)C (stereo not shown) [Compound 48],≥ 70
7,CCS(=O)(CC)=Nc1ccc2nn(-c3cncc(F)c3)cc2n1 [Compound 308],≥ 70
8,CN=S(=O)(c1ccc2nn(-c3cccnc3)cc2c1)C(C)C (stereo not shown) [Compound 408],≥ 70
9,O=S(CCC(F)(F)F)(=Nc1ccc2nn(-c3ccnnc3)cc2c1)c1ccccc1 (stereo not shown) [Compound 68],≥ 70
10,CC(C)S(C)(=O)=Nc1ccc2nn(-c3cncc(F)c3)cc2n1 (stereo not shown) [Compound 311],≥ 70
11,COc1ccc(S(=O)(CCC(F)(F)F)=Nc2ccc3nn(-c4cncc(F)c4)cc3c2)cc1 (stereo not shown) [Compound 66],≥ 70
12,CC(C)S(C)(=O)=Nc1cccc2nn(-c3cccnc3)cc12 (stereo not shown) [Compound 74],≥ 70
13,O=S(CCC(F)(F)F)(=Nc1ccc2nn(-c3cncc(F)c3)cc2c1)c1ccccc1 (stereo not shown) [Compound 65],≥ 70
14,CCCS(=O)(CCC)=Nc1cc2cn(-c3cncnc3)nc2cn1 [Compound 278],≥ 70
15,CC(C)S(=O)(=Nc1ccc2nn(-c3cncnc3)cc2c1)c1ccc(F)cc1 (stereo not shown) [Compound 18],≥ 70
16,CC(C)S(=O)(=Nc1ccc2nn(-c3cncnc3)cc2c1)C(C)C [Compound 31],≥ 70
17,"COc1nn(-c2ccc3nn(-c4cccnc4)cc3c2)c(=O)n1Cc1ccc(Cl)c(Cl)c1 [Compound 368, 4-(3,4-dichlorobenzyl)-5-methoxy-2-(2-(pyridin-3-yl)-2H-indazol-5-yl)-2,4-dihydro-3H-1,2,4-triazol-3-one]",≥ 70
18,CCS(C)(=O)=Nc1ccc(F)c2nn(-c3cccnc3)cc12 (stereo not shown) [Compound 109],≥ 70
19,CS(=O)(=Nc1ccc2nn(-c3cncnc3)cc2n1)C1CCCCC1 (stereo not shown) [Compound 223],≥ 70
20,CCS(=O)(CC)=Nc1ccc2nn(-c3ccnnc3)cc2c1 [Compound 43],≥ 70
21,CCS(=O)(=Nc1cncc(C(F)(F)F)n1)c1ccc2nn(-c3cncc(F)c3)cc2c1 (stereo not shown) [Compound 463],≥ 70
22,"COc1nn(-c2ccc3nn(-c4cccnc4)cc3c2)c(=O)n1Cc1ccccc1F [Compound 122, 4-(2-fluorobenzyl)-5-methoxy-2-(2-(pyridin-3-yl)-2H-indazol-5-yl)-2,4-dihydro-3H-1,2,4-triazol-3-one]",≥ 70
23,"COc1nn(-c2ccc3nn(-c4cccnc4)cc3c2)c(=O)n1Cc1ccc(Cl)cc1Cl [Compound 369, 4-(2,4-dichlorobenzyl)-5-methoxy-2-(2-(pyridin-3-yl)-2H-indazol-5-yl)-2,4-dihydro-3H-1,2,4-triazol-3-one]",≥ 70
24,CCS(=O)(=Nc1ccc2nn(-c3cncnc3)cc2c1)c1ccccc1 (stereo not shown) [Compound 34],≥ 70
25,CCCCS(=O)(CC)=Nc1ccc2nn(-c3cncnc3)cc2n1 (stereo not shown) [Compound 220],≥ 70

# Tested on: Nilaparvata lugens
# Test: Nilaparvata lugens seedling dip test (paddy seedlings, third instar nymphs)
# Format: in vivo
# Details: dead and moribund third instar nymphs 72 h after release, compared to untreated controls, read-out: percent mortality
# Protocol: The seedling dip method was used for testing, wherein the required quantity of the compound was weighed and dissolved in a tube containing a solvent solution. The tube was put on a vortex at 2000 rpm for proper mixing and then diluted with a 0.01% Triton-X solution to the desired test concentration. Paddy seedlings were dipped in the compound solution for 10 seconds, shade dried for 20 min and then the seedlings were placed in glass test tubes with the roots kept in water. 15 third instar nymphs of Nilaparvata lugens were released into each test tube and the tubes were kept in a plant growth chamber at a temperature of 25° C. and relative humidity of 75%. Observations on dead, moribund and alive nymphs were recorded 72 h after the release. Percent mortality was calculated by combining dead and moribund nymphs and comparing the result to the one of the untreated controls. The compounds
row,Compound,mortality at 300 ppm [%]
1,"COc1nn(-c2ccc3nn(-c4cccnc4C)cc3c2)c(=O)n1C [Compound 113, 5-methoxy-4-methyl-2-(2-(2-methylpyridin-3-yl)-2H-indazol-5-yl)-2,4-dihydro-3H-1,2,4-triazol-3-one]",≥ 70
2,"CCOc1nn(-c2cccc3nn(-c4cccnc4)cc23)c(=O)n1Cc1ccccc1F [Compound 359, 5-ethoxy-4-(2-fluorobenzyl)-2-(2-(pyridin-3-yl)-2H-indazol-4-yl)-2,4-dihydro-3H-1,2,4-triazol-3-one]",≥ 70
3,"COc1nn(-c2cccc3nn(-c4cccnc4)cc23)c(=O)n1C [Compound 125, 5-methoxy-4-methyl-2-(2-(pyridin-3-yl)-2H-indazol-4-yl)-2,4-dihydro-3H-1,2,4-triazol-3-one]",≥ 70
4,CC(C)S(=O)(=NC(=O)C(F)(F)F)c1ccc2nn(-c3cccnc3)cc2c1 (stereo not shown) [Compound 394],≥ 70
5,CC(C)(C)S(C)(=O)=Nc1ccc2nn(-c3cncnc3)cc2c1 (stereo not shown) [Compound 19],≥ 70
6,CC(C)S(=O)(=NC(=O)C(F)F)c1ccc2nn(-c3cccnc3)cc2c1 (stereo not shown) [Compound 396],≥ 70
7,CS(=O)(=Nc1ccc2nn(-c3cccnc3)cc2c1)c1ccccc1 (stereo not shown) [Compound 21],≥ 70

# Source: US20250282754A1, “BICYCLIC COMPOUNDS AND THEIR USE AS PEST CONTROL AGENTS” (Pl Industries Ltd., priority 2022, published 2025)
